Counter-ions that a name gives are not always drawn.
Key:
human α1b receptor = biological target: T1, human α1b receptor (Homo sapiens, UniProt P35368); experiment: Radioligand binding assay at cloned human α1b adrenergic receptor; conditions: [3H]prazosin 0.5 nM, membrane preparations of transfected LM(tk−) cells, read-out: hα1b Ki
T1 construct: host or cells: LM(tk−) cells, membrane preparation
T1 sequence (P35368 1-520): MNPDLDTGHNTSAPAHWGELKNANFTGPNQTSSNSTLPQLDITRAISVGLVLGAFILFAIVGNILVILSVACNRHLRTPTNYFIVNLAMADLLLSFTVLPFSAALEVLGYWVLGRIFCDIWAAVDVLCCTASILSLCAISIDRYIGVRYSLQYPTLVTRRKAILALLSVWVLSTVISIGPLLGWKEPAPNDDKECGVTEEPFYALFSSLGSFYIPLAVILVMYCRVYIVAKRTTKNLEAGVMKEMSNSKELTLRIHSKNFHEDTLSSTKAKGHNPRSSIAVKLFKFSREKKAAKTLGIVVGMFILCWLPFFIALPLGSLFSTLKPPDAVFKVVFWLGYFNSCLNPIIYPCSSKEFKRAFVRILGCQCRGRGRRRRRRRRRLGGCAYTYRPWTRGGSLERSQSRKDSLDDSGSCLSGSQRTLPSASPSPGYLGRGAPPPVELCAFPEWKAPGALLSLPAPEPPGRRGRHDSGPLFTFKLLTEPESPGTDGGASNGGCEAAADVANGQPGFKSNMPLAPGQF
Procedure: (§1) These cell lines were prepared by transfecting the cloned cDNA or cloned genomic DNA or constructs containing both genomic DNA and cDNA encoding the human α-adrenergic receptors as follows:
The construct involved ligating the full-length containing EcoRI brainstem cDNA fragment from λ ZapII into the expression vector. Stable cell lines were selected as described above.
(§2) Radioligand Binding Assays for α1 receptors: Transfected cells from culture flasks were scraped into 5 ml of 5 mM Tris-HCl, 5 mM EDTA, pH 7.5, and lysed by sonication. The cell lysates were centrifuged at 1000 rpm for 5 min at 4° C., and the supernatant was centrifuged at 30,000×g for 20 min at 4° C. The pellet was suspended in 50 mM Tris-HCl, 1 mM MgCl2, and 0.1% ascorbic acid at pH 7.5. Binding of the α1 antagonist [^3H]prazosin (0.5 nM, specific activity 76.2 Ci/mmol) to membrane preparations of LM(tk−) cells was done in a final volume of 0.25 ml and incubated at 37° C. for 20 min. Nonspecific binding was determined in the presence of […] phentolamine. The reaction was stopped by filtration through GF/B filters using a cell harvester.

human α1a receptor = biological target: T2, human α1a receptor (Homo sapiens, UniProt P35348); experiment: Radioligand binding assay at cloned human α1a adrenergic receptor; conditions: [3H]prazosin 0.5 nM, membrane preparations of transfected LM(tk−) cells, read-out: hα1a Ki
T2 construct: host or cells: LM(tk−) cells, membrane preparation
T2 sequence (P35348 1-466): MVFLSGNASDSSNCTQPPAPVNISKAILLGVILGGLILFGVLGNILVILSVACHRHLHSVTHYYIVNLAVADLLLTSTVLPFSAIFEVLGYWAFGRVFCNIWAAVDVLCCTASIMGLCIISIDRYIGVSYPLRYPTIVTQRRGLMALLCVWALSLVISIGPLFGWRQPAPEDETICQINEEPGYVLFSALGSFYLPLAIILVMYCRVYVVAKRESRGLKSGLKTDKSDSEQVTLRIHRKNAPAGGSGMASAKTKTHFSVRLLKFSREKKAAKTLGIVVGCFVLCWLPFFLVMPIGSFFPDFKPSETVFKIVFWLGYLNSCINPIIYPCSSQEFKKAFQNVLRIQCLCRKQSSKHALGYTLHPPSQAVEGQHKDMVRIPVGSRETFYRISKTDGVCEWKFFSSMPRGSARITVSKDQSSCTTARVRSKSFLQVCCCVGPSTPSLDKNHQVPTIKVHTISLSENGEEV
Procedure: as §1
The construct involved ligating three partial overlapping fragments: a 5′ 0.6 kb HincII genomic clone, a central 1.8 EcoRI hippocampal cDNA clone, and a 3′ 0.6Kb PstI genomic clone. The hippocampal cDNA fragment overlaps with the 5′ and 3′ genomic clones so that the HincII and PstI sites at the 5′ and 3′ ends of the cDNA clone, respectively, were utilized for ligation. This full-length clone was cloned into the KpnI site of the expression vector, using the 5′ and 3′ KpnI sites of the fragment, derived from vector (i.e., pBluescript) and 3′-untranslated sequences, respectively. Stable cell lines were selected as described above.
as §2

human α1d receptor = biological target: T3, human α1d receptor (Homo sapiens, UniProt P25100); experiment: Radioligand binding assay at cloned human α1d adrenergic receptor; conditions: [3H]prazosin 0.5 nM, membrane preparations of transfected LM(tk−) cells, read-out: hα1d Ki
T3 construct: host or cells: LM(tk−) cells, membrane preparation
T3 sequence (P25100 1-572): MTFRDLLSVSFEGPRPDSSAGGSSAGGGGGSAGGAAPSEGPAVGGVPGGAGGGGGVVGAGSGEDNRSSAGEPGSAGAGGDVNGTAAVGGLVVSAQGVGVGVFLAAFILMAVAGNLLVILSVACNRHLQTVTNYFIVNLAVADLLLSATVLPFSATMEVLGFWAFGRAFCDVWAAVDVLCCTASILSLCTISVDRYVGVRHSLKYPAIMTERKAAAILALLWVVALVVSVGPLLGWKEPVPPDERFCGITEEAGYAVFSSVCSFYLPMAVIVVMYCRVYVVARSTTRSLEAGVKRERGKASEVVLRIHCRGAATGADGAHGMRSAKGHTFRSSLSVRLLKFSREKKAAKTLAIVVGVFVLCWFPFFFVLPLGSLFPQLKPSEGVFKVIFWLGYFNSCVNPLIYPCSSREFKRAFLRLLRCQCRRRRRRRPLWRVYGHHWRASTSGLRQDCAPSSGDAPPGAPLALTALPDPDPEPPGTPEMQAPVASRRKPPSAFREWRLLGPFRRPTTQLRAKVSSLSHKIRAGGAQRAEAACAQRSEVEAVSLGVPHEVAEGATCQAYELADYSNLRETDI
Procedure: as §1
The cells were grown, in a controlled environment (37° C., 5% CO2), as monolayers in Dulbecco's modified Eagle's Medium (GIBCO, Grand Island, N.Y.) containing 25 mM glucose and supplemented with 10% bovine calf serum, 100 units/ml penicillin g, and 100 μg/ml streptomycin sulfate.
as §2

| Compound | Ki (human α1b receptor) | Ki (human α1a receptor) | melting point | Ki (human α1d receptor) |
| --- | --- | --- | --- | --- |
| CC1OCC(=O)N(C(=O)NCCCN2CCC(C#N)(c3ccccc3)CC2)C1c1ccc(F)c(F)c1 (single isomer, unassigned; (+)) [Compound 14] | 1460 nM | 2.6 nM | 191 to 194 °C | 4200 nM |
| COc1ccc(F)cc1C1(c2ccccc2)CCN(CCCNC(=O)N2C(=O)COCC2c2ccc(F)c(F)c2)CC1 (single isomer, unassigned; (+)) [Compound 1, (+)-3-(3,4-Difluorophenyl)-5-oxo-morpholine-4-carboxylic acid-{3-[4-(5-fluoro-2-methoxyphenyl)-4-phenyl-piperidin-1-yl}-propyl}-amide] | 244 nM | 1.6 nM |  | 307 nM |
| N#CC1(c2ccccc2)CCC(NCCNC(=O)N2C(=O)COCC2c2ccc(F)c(F)c2)CC1 (centres unmarked) [Compound 7] | 246 nM | 12.6 nM |  | 204 nM |
| NC(=O)c1ccccc1N1CCN(CCCNC(=O)N2C(=O)COCC2c2ccc(F)c(F)c2)CC1 (centres unmarked) [Compound 4, 3-(3,4-Difluoro-phenyl)-5-oxo-morpholine-4-carboxylic acid-{3-[4-(2-carboxamido)-phenyl-piperiazin-1-yl]-propyl}-amide] | 3630 nM | 32 nM |  | 3160 nM |
| COc1ccc(F)cc1C1(c2ccccc2)CCN(CCCNC(=O)N2C(=O)COCC2c2ccc(F)c(F)c2)CC1 (single isomer, unassigned; (+)) (as salt: HCl) [Compound 1, (+)-3-(3,4-Difluorophenyl)-5-oxo-morpholine-4-carboxylic acid-{3-[4-(5-fluoro-2-methoxyphenyl)-4-phenyl-piperidin-1-yl}-propyl}-amide] |  |  | 110 to 113 °C |  |
| CC1(C)OCC(=O)N(C(=O)NCCCN2CCC(c3ccccn3)CC2)C1c1ccc(F)c(F)c1 (centres unmarked) [Compound 17, N-4-[3-{4-(2-pyridyl}piperidino)propyl]-3-(3,4-difluorophenyl)-2,2-dimethyl-5-oxo-4-morpholinecarboxamide hydrochloride] | 464 nM | 3.8 nM |  | 580 nM |

— patent publication US6531471B2, “Morpholinone and morpholine derivatives and uses thereof” (Synaptic Pharmaceutical Corporation, priority 1998, dated 2003)
